From PubChem BioAssay AID2060605 (Molecular Pharmacology Branch, DTP, NCI, 2025)
Values joined by “and” are separate entries in the source; they are usually repeats but may differ in a detail not shown here. Equal values may be shown once.

Tested on: 947758-054-R-J2-PDC spheroid growth, percent test/control
Assay: Anticancer human tumor 947758-054-R-J2-PDC patient-derived colon adenocarcinoma cell line growth inhibition [CLK]
Settings: spheroids with HUVEC and MSC; for viability, T/C: stronger effect = lower value
Procedure, shortened: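 Patient-derived tumor cells grown as complex spheroids with HUVEC endothelial cells and mesenchymal stem cells, treated with drug combinations. Concentrations descend in half-log steps from near clinical Cmax, or from 10 microM if Cmax unknown.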

[1] = curve of first compound, second compound 0.0316 µM
[2] = curve of first compound, second compound 0.1 µM
[3] = curve of first compound, second compound 0.316 µM
[4] = curve of first compound, second compound 1 µM
[5] = curve of first compound, second compound 3.16 µM
[6] = curve of first compound, second compound 10 µM
[7] = second compound 0.0316 µM, first compound 0.0316 µM
[8] = second compound 0.0316 µM, first compound 0.1 µM
[9] = second compound 0.0316 µM, first compound 0.316 µM
[10] = second compound 0.0316 µM, first compound 1 µM
[11] = second compound 0.0316 µM, first compound 3.16 µM
[12] = second compound 0.0316 µM, first compound 10 µM
[13] = second compound 0.1 µM, first compound 0.0316 µM
[14] = second compound 0.1 µM, first compound 0.1 µM
[15] = second compound 0.1 µM, first compound 0.316 µM
[16] = second compound 0.1 µM, first compound 1 µM
[17] = second compound 0.1 µM, first compound 3.16 µM
[18] = second compound 0.1 µM, first compound 10 µM
[19] = second compound 0.316 µM, first compound 0.0316 µM
[20] = second compound 0.316 µM, first compound 0.1 µM
[21] = second compound 0.316 µM, first compound 0.316 µM
[22] = second compound 0.316 µM, first compound 1 µM
[23] = second compound 0.316 µM, first compound 3.16 µM
[24] = second compound 0.316 µM, first compound 10 µM
[25] = second compound 1 µM, first compound 0.0316 µM
[26] = second compound 1 µM, first compound 0.1 µM
[27] = second compound 1 µM, first compound 0.316 µM
[28] = second compound 1 µM, first compound 1 µM
[29] = second compound 1 µM, first compound 3.16 µM
[30] = second compound 1 µM, first compound 10 µM
[31] = second compound 3.16 µM, first compound 0.0316 µM
[32] = second compound 3.16 µM, first compound 0.1 µM
[33] = second compound 3.16 µM, first compound 0.316 µM
[34] = second compound 3.16 µM, first compound 1 µM
[35] = second compound 3.16 µM, first compound 3.16 µM
[36] = second compound 3.16 µM, first compound 10 µM
[37] = second compound 10 µM, first compound 0.0316 µM
[38] = second compound 10 µM, first compound 0.1 µM
[39] = second compound 10 µM, first compound 0.316 µM
[40] = second compound 10 µM, first compound 1 µM
[41] = second compound 10 µM, first compound 3.16 µM
[42] = second compound 10 µM, first compound 10 µM
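Also: spheroids exposed to compounds for one week before readout.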
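For viability, T/C in this document: 100% = DMSO vehicle control wells.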

In the case of CCCS(=O)(=O)Nc1ccc(F)c(C(=O)c2c[nH]c3ncc(-c4ccc(Cl)cc4)cc23)c1F, the viability, T/C (compound 0.0316 µM) is reported as 81.8% and 79.5%, the viability, T/C (compound 0.1 µM) is reported as 79.8% and 65% and the viability, T/C (compound 0.316 µM) is reported as 79.4% and 71%. The viability, T/C (compound 1 µM) was 77.4% and 68.7%, the viability, T/C (compound 3.16 µM) was 83.3% and 76.3% and the viability, T/C (compound 10 µM) was 80.2% and 70.7%. For the same molecule, the IC50 (curve of compound) was > 10000 nM.
C#Cc1c(F)ccc2cc(O)cc(-c3ncc4c(N5CC6CCC(C5)N6)nc(OCC56CCCN5CC(F)C6)nc4c3F)c12 (stereo not drawn) + CN1CCN(c2cc(C(=O)Nc3cc4cc(-c5cnn(C)c5)ccc4cn3)ccn2)CC1 was tested, and the IC50 [1] was > 10000 nM, the IC50 [2] was > 10000 nM and the IC50 [3] was < 31.6 nM. For the same molecule, the IC50 [4] was < 31.6 nM, the IC50 [5] was < 31.6 nM and the IC50 [6] was < 31.6 nM. For the same molecule, the viability, T/C [7] was 103%, the viability, T/C [8] was 123% and the viability, T/C [9] was 126%. For the same molecule, the viability, T/C [10] was 73.3%, the viability, T/C [11] was 107% and the viability, T/C [12] was 118%. The viability, T/C [13] was 145%, the viability, T/C [14] was 214% and the viability, T/C [15] was 187%. For the same molecule, the viability, T/C [16] was 214%, the viability, T/C [17] was 216% and the viability, T/C [18] was 148%. It also gave a viability, T/C [19] of 5.41%, a viability, T/C [20] of 7.64% and a viability, T/C [21] of 7.09%. The viability, T/C [22] was 6.71%, the viability, T/C [23] was 6% and the viability, T/C [24] was 5.97%. The viability, T/C [25] was 0.17%, the viability, T/C [26] was 0.21% and the viability, T/C [27] was 0.18%. It also gave a viability, T/C [28] of 0.22%, a viability, T/C [29] of 0.19% and a viability, T/C [30] of 0.21%. For the same molecule, the viability, T/C [31] was 0.19%, the viability, T/C [32] was 0.24% and the viability, T/C [33] was 0.24%. It also gave a viability, T/C [34] of 0.2%, a viability, T/C [35] of 0.23% and a viability, T/C [36] of 0.67%. The viability, T/C [37] was 0.38%, the viability, T/C [38] was 0.42% and the viability, T/C [39] was 0.33%. For the same molecule, the viability, T/C [40] was 0.37%, the viability, T/C [41] was 0.37% and the viability, T/C [42] was 0.26%.
With C=C(F)C(=O)N1CCN(c2nc(OCC3CCCN3C)nc3c2CCN(c2cccc4cccc(Cl)c24)C3)CC1CC#N (stereo not drawn) + CN1CCN(c2cc(C(=O)Nc3cc4cc(-c5cnn(C)c5)ccc4cn3)ccn2)CC1 the IC50 [1] was 6610 nM, the IC50 [2] was 7050 nM and the IC50 [3] was < 31.6 nM. For the same molecule, the IC50 [4] was < 31.6 nM, the IC50 [5] was < 31.6 nM and the IC50 [6] was < 31.6 nM. For the same molecule, the viability, T/C [7] was 122%, the viability, T/C [8] was 116% and the viability, T/C [9] was 109%. The viability, T/C [10] was 107%, the viability, T/C [11] was 146% and the viability, T/C [12] was 10.6%. It also gave a viability, T/C [13] of 149%, a viability, T/C [14] of 201% and a viability, T/C [15] of 181%. The viability, T/C [16] was 220%, the viability, T/C [17] was 154% and the viability, T/C [18] was 4.69%. The viability, T/C [19] was 4.5%, the viability, T/C [20] was 5.53% and the viability, T/C [21] was 5.34%. For the same molecule, the viability, T/C [22] was 6.82%, the viability, T/C [23] was 8.16% and the viability, T/C [24] was 1.5%. For the same molecule, the viability, T/C [25] was 0.18%, the viability, T/C [26] was 1.06% and the viability, T/C [27] was 0.17%. It also gave a viability, T/C [28] of 2.25%, a viability, T/C [29] of 0.12% and a viability, T/C [30] of 0.96%. For the same molecule, the viability, T/C [31] was 1.29%, the viability, T/C [32] was 0.25% and the viability, T/C [33] was 0.21%. It also gave a viability, T/C [34] of 0.24%, a viability, T/C [35] of 0.14% and a viability, T/C [36] of 0.12%. The viability, T/C [37] was 1.57%, the viability, T/C [38] was 1.69% and the viability, T/C [39] was 0.29%. The viability, T/C [40] was 0.31%, the viability, T/C [41] was 1.29% and the viability, T/C [42] was 1.41%.
NC(=O)C(=Cn1cnc(-c2cc(C(F)(F)F)cc(C(F)(F)F)c2)n1)c1cncnc1 + CNC(=O)c1ccc(Nc2nc(OC3CCCC3)c3c(-c4ccc5nc(C)oc5c4)c[nH]c3n2)c(OC)c1 was tested, and the IC50 [1] was < 9.49 nM, the IC50 [2] was < 9.49 nM and the IC50 [3] was 11.2 nM. For the same molecule, the IC50 [4] was < 9.49 nM, the IC50 [5] was < 9.49 nM and the IC50 [6] was < 9.49 nM. The viability, T/C (second compound 0.0316 µM, first compound 0.00949 µM) was 46.7%, the viability, T/C (second compound 0.0316 µM, first compound 0.03 µM) was 37.3% and the viability, T/C (second compound 0.0316 µM, first compound 0.0949 µM) was 34.4%. It also gave a viability, T/C (second compound 0.0316 µM, first compound 0.3 µM) of 33.6%, a viability, T/C (second compound 0.0316 µM, first compound 0.949 µM) of 8.62% and a viability, T/C (second compound 0.0316 µM, first compound 3 µM) of 2.27%. The viability, T/C (second compound 0.1 µM, first compound 0.00949 µM) was 45.2%, the viability, T/C (second compound 0.1 µM, first compound 0.03 µM) was 32.4% and the viability, T/C (second compound 0.1 µM, first compound 0.0949 µM) was 25.6%. It also gave a viability, T/C (second compound 0.1 µM, first compound 0.3 µM) of 22.8%, a viability, T/C (second compound 0.1 µM, first compound 0.949 µM) of 4.68% and a viability, T/C (second compound 0.1 µM, first compound 3 µM) of 0.78%. The viability, T/C (second compound 0.316 µM, first compound 0.00949 µM) was 53.1%, the viability, T/C (second compound 0.316 µM, first compound 0.03 µM) was 32.4% and the viability, T/C (second compound 0.316 µM, first compound 0.0949 µM) was 15.1%. The viability, T/C (second compound 0.316 µM, first compound 0.3 µM) was 11.8%, the viability, T/C (second compound 0.316 µM, first compound 0.949 µM) was 3.26% and the viability, T/C (second compound 0.316 µM, first compound 3 µM) was 0.42%. The viability, T/C (second compound 1 µM, first compound 0.00949 µM) was 25.9%, the viability, T/C (second compound 1 µM, first compound 0.03 µM) was 20.6% and the viability, T/C (second compound 1 µM, first compound 0.0949 µM) was 12%. It also gave a viability, T/C (second compound 1 µM, first compound 0.3 µM) of 3.56%, a viability, T/C (second compound 1 µM, first compound 0.949 µM) of 1.32% and a viability, T/C (second compound 1 µM, first compound 3 µM) of 0.36%. For the same molecule, the viability, T/C (second compound 3.16 µM, first compound 0.00949 µM) was 20.4%, the viability, T/C (second compound 3.16 µM, first compound 0.03 µM) was 16.3% and the viability, T/C (second compound 3.16 µM, first compound 0.0949 µM) was 10.9%. The viability, T/C (second compound 3.16 µM, first compound 0.3 µM) was 1.11%, the viability, T/C (second compound 3.16 µM, first compound 0.949 µM) was 0.26% and the viability, T/C (second compound 3.16 µM, first compound 3 µM) was 0.36%. The viability, T/C (second compound 10 µM, first compound 0.00949 µM) was 15.3%, the viability, T/C (second compound 10 µM, first compound 0.03 µM) was 13.7% and the viability, T/C (second compound 10 µM, first compound 0.0949 µM) was 5.14%. It also gave a viability, T/C (second compound 10 µM, first compound 0.3 µM) of 0.42%, a viability, T/C (second compound 10 µM, first compound 0.949 µM) of 0.28% and a viability, T/C (second compound 10 µM, first compound 3 µM) of 0.34%.
